According to US20250049970A1, “DLL3 TARGETING PEPTIDES AND CONSTRUCTS THEREOF” (MARIANA ONCOLOGY INC., priority 2023, published 2025):
*1 amine or outer side, *2 acyl side, *3 side chain or, on linkers, in order; H or OH if unused. Where a SMILES comes first, the peptide text is derived from it. Bridges are numbered along the chain shown (N, C = ends). [ ]: non-standard residue; d: D form. The star is where a group is joined. ξ: configuration not given here. X9 = CSCC[C@H](NC(=O)c1ccc(CNC(=O)CN2CCN(CC(=O)O)CCN(CC(=O)O)CCN(CC(=O)O)CC2)cc1)C(=O)N[C@H](C(=O)N[C@@H](CCCCN*)C(=O)O)C(C)C; Ala(piperidin-4-yl) = O=C([C@H](CC1CCN([*:3])CC1)N[*:1])[*:2]; DOTA = O=C(O)CN1CCN(CC(=O)O)CCN(CC(=O)*)CCN(CC(=O)O)CC1; X5 = O=C(Cc1ccc(Br)cc1)NCCOCCOCCOCCOCCOCCOCCOCCOCC(=O)*; X2 = O=C(Cc1ccc(I)cc1)NCCOCCOCCOCCOCCOCCOCCOCCOCC(=O)*; Trp(7-OMe) = COc1cccc2c(C[C@H](N)C(=O)O)c[nH]c12; Trp(7-Me) = Cc1cccc2c(C[C@H](N)C(=O)O)c[nH]c12; 2Nal = N[C@@H](Cc1ccc2ccccc2c1)C(=O)O; NMetBuAla = CN[C@@H](CC(C)(C)C)C(=O)O; tBuAla = CC(C)(C)C[C@H](N)C(=O)O; Chg = N[C@H](C(=O)O)C1CCCCC1; NMeNle = CCCC[C@H](NC)C(=O)O; CH2 = C([*:1])[*:2]; ξP = O=C(O)C1CCCN1

Biological target: T1, DLL3 (Homo sapiens, UniProt Q9NYJ7)
T1 sequence (Q9NYJ7 27-618): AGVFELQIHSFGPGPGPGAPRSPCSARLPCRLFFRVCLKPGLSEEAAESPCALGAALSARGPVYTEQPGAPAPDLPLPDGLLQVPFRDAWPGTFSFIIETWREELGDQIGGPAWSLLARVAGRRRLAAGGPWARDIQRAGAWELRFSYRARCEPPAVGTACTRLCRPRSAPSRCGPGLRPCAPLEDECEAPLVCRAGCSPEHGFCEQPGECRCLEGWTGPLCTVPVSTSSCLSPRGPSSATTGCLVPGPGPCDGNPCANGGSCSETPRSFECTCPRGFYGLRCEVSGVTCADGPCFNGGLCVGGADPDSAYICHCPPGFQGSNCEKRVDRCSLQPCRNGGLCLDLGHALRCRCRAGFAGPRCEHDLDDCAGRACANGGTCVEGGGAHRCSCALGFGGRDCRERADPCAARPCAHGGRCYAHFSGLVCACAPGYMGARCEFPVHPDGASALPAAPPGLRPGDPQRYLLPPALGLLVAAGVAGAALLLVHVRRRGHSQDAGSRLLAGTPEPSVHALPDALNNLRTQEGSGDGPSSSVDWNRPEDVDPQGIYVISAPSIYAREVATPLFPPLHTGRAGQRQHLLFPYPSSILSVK
Assay: SPR KD, biotinylated human DLL3 on streptavidin chip (Table 8)
Set-up: biotin (biotinylated)
Conditions: SPR KD, biotinylated human DLL3 on streptavidin sensor chip, 25° C., 1:1 binding model
Text: Biotinylated target ligand human DLL3 was immobilized on a streptavidin sensor chip. A reference surface was set up for nonspecific binding and refractive index changes. […] Sensorgram curves were fitted with 1:1 binding model, and affinity and kinetic parameters were obtained using Biacore Insight evaluation 4.0. software.

| SMILES | Kd [nM] |
| --- | --- |
| CC(=O)N[C@@H](Cc1c[nH]c2ccccc12)C(=O)N[C@H](C(=O)N[C@H](C(=O)N[C@H]1CSSC[C@@H](C(=O)N[C@@H](Cc2c[nH]c3ccccc23)C(=O)N2CCC[C@H]2C(=O)N[C@H](CCCCNC(=O)COCCOCCOCCOCCOCCOCCOCCOCCNC(=O)Cc2ccc(I)cc2)C(N)=O)NC(=O)[C@H](CC(=O)O)NC(=O)[C@H](CCCCNC(=O)CN2CCN(CC(=O)O)CCN(CC(=O)O)CCN(CC(=O)O)CC2)NC(=O)[C@H](Cc2ccc3ccccc3c2)NC(=O)[C@H](CC(N)=O)NC(=O)[C@H](CC2CCNCC2)NC1=O)C1CCCCC1)[C@@H](C)O [compound 420] (Ac-WT[Chg]C[Ala(piperidin-4-yl)]N[2Nal]K(DOTA)DCWP[dK](X2)-NH2; disulfide 4-10) | < 1 |
| CC(=O)N[C@@H](Cc1c[nH]c2ccccc12)C(=O)N[C@H](C(=O)N[C@H](C(=O)N[C@H]1CSSC[C@@H](C(=O)N[C@@H](Cc2c[nH]c3ccccc23)C(=O)N2CCC[C@H]2C(=O)N[C@H](CCCCNC(=O)COCCOCCOCCOCCOCCOCCOCCOCCNC(=O)Cc2ccc(Br)cc2)C(N)=O)NC(=O)[C@H](CC(=O)O)NC(=O)[C@H](CCCCNC(=O)CN2CCN(CC(=O)O)CCN(CC(=O)O)CCN(CC(=O)O)CC2)NC(=O)[C@H](Cc2ccc3ccccc3c2)NC(=O)[C@H](CC(N)=O)NC(=O)[C@H](CC2CCNCC2)NC1=O)C1CCCCC1)[C@@H](C)O [compound 421] (Ac-WT[Chg]C[Ala(piperidin-4-yl)]N[2Nal]K(DOTA)DCWP[dK](X5)-NH2; disulfide 4-10) | < 1 |

Same assay, conditions: biotinylated human DLL3 on streptavidin sensor chip, 25° C., 1:1 binding model; read-out: SPR KD

| Kd [nM] | SMILES |
| --- | --- |
| < 1 | CC(=O)N[C@@H](Cc1c[nH]c2ccccc12)C(=O)N[C@H](C(=O)N[C@H](C(=O)N[C@H]1CSCSC[C@@H](C(=O)N[C@@H](Cc2c[nH]c3ccccc23)C(=O)N2CCC[C@H]2C(=O)N[C@H](CCCCNC(=O)COCCOCCOCCOCCOCCOCCOCCOCCNC(=O)Cc2ccc(Br)cc2)C(N)=O)NC(=O)[C@H](CC(=O)O)NC(=O)[C@H](CCCCNC(=O)CN2CCN(CC(=O)O)CCN(CC(=O)O)CCN(CC(=O)O)CC2)NC(=O)[C@H](Cc2ccc3ccccc3c2)NC(=O)[C@H](CC(N)=O)NC(=O)[C@H](CC2CCNCC2)NC1=O)C1CCCCC1)[C@@H](C)O [compound 418] (Ac-WT[Chg]C[Ala(piperidin-4-yl)]N[2Nal]K(DOTA)DCWP[dK](X5)-NH2; linker 4-10 via CH2) |
| < 1 | CC(=O)N[C@@H](Cc1c[nH]c2ccccc12)C(=O)N[C@H](C(=O)N(C)[C@@H](CC(C)(C)C)C(=O)N[C@H]1CSSC[C@@H](C(=O)N[C@@H](Cc2c[nH]c3ccccc23)C(=O)N2CCC[C@H]2C(N)=O)NC(=O)[C@H](CC(=O)O)NC(=O)[C@H](CCCCNC(=O)CN2CCN(CC(=O)O)CCN(CC(=O)O)CCN(CC(=O)O)CC2)NC(=O)[C@H](Cc2ccc3ccccc3c2)NC(=O)[C@H](CC(N)=O)NC(=O)[C@H](CC2CCNCC2)NC1=O)[C@@H](C)O [compound 419, Ac-W-T-(NMe-tBuAla)-C(3)-[3-(4piperdinyl)-Ala]-N-(2Nal)-Lys(DOTA)-D-C(3)-W-P-CONH2] (Ac-WT[NMetBuAla]C[Ala(piperidin-4-yl)]N[2Nal]K(DOTA)DCWP-NH2; disulfide 4-10) |
| < 1 | CCCC[C@@H](C(=O)N[C@H]1CSSC[C@@H](C(=O)N[C@@H](Cc2c[nH]c3ccccc23)C(=O)N2CCC[C@H]2C(N)=O)NC(=O)[C@H](CC(=O)O)NC(=O)[C@H](CCCCNC(=O)CN2CCN(CC(=O)O)CCN(CC(=O)O)CCN(CC(=O)O)CC2)NC(=O)[C@H](Cc2ccc3ccccc3c2)NC(=O)[C@H](CC(N)=O)NC(=O)[C@H](CC2CCNCC2)NC1=O)N(C)C(=O)[C@@H](NC(=O)[C@H](Cc1c[nH]c2c(OC)cccc12)NC(C)=O)[C@@H](C)O [compound 422, Ac-(7MeO-Trp)-T-(NMe-Nle)-C(3)-[3-(4piperdinyl)-Ala]-N-(2Nal)-Lys(DOTA)-D-C(3)-W-P-CONH2] (Ac-[Trp(7-OMe)]T[NMeNle]C[Ala(piperidin-4-yl)]N[2Nal]K(DOTA)DCWP-NH2; disulfide 4-10) |
| 100 to 300 | CC(=O)N[C@H](Cc1c[nH]c2ccccc12)C(=O)N[C@@H](C(=O)N[C@@H](CC(C)(C)C)C(=O)N[C@@H]1CSCSC[C@@H](C(=O)N[C@@H](Cc2c[nH]c3ccccc23)C(=O)N2CCC[C@H]2C(N)=O)NC(=O)[C@H](CC(=O)O)NC(=O)[C@H](CCCCNC(=O)CN2CCN(CC(=O)O)CCN(CC(=O)O)CCN(CC(=O)O)CC2)NC(=O)[C@H](Cc2ccc3ccccc3c2)NC(=O)[C@H](CC(N)=O)NC(=O)[C@H](CC(N)=O)NC1=O)[C@H](C)O [compound 423, Ac-W-T-(t-Bu-Ala)-[D-Cys(1)]-N-N-(2Nal)-Lys(DOTA)-D-C(1)-W-P-CONH2] (Ac-[dW][dT][tBuAla][dC]NN[2Nal]K(DOTA)DCWP-NH2; linker 4-10 via CH2) |
| < 1 | CC(=O)N[C@H](Cc1c[nH]c2ccccc12)C(=O)N[C@@H](C(=O)N[C@@H](CC(C)(C)C)C(=O)N[C@H]1CSCSC[C@H](C(=O)N[C@@H](Cc2c[nH]c3ccccc23)C(=O)N2CCC[C@H]2C(N)=O)NC(=O)[C@H](CC(=O)O)NC(=O)[C@H](CCCCNC(=O)CN2CCN(CC(=O)O)CCN(CC(=O)O)CCN(CC(=O)O)CC2)NC(=O)[C@H](Cc2ccc3ccccc3c2)NC(=O)[C@H](CC(N)=O)NC(=O)[C@H](CC(N)=O)NC1=O)[C@H](C)O [compound 424, Ac-W-T-(t-Bu-Ala)-C(1)-N-N-(2Nal)-Lys(DOTA)-D-[D-Cys(1)]-W-P-CONH2] (Ac-[dW][dT][tBuAla]CNN[2Nal]K(DOTA)D[dC]WP-NH2; linker 4-10 via CH2) |
| < 1 | CSCC[C@H](NC(=O)c1ccc(CNC(=O)CN2CCN(CC(=O)O)CCN(CC(=O)O)CCN(CC(=O)O)CC2)cc1)C(=O)N[C@H](C(=O)N[C@@H](CCCCNC(=O)CC[C@@H]1NC(=O)[C@H](Cc2ccc3ccccc3c2)NC(=O)[C@H](CC(N)=O)NC(=O)[C@H](CC2CCNCC2)NC(=O)[C@@H](NC(=O)[C@@H](NC(=O)[C@@H](NC(=O)[C@H](Cc2c[nH]c3ccccc23)NC(C)=O)[C@@H](C)O)C2CCCCC2)CSCSC[C@@H](C(=O)N[C@@H](Cc2c[nH]c3ccccc23)C(=O)N2CCC[C@H]2C(N)=O)NC(=O)[C@H](CC(=O)O)NC1=O)C(=O)O)C(C)C [compound 425] (Ac-WT[Chg]C[Ala(piperidin-4-yl)]N[2Nal]E(X9)DCWP-NH2; linker 4-10 via CH2) |
| < 1 | CC(=O)N[C@@H](Cc1c[nH]c2c(C)cccc12)C(=O)N[C@H](C(=O)N[C@H](C(=O)N[C@H]1CSCSC[C@@H](C(=O)N[C@@H](Cc2c[nH]c3ccccc23)C(=O)N2CCC[C@H]2C(N)=O)NC(=O)[C@H](CC(=O)O)NC(=O)[C@H](CCCCNC(=O)CN2CCN(CC(=O)O)CCN(CC(=O)O)CCN(CC(=O)O)CC2)NC(=O)[C@H](Cc2ccc3ccccc3c2)NC(=O)[C@H](CC(N)=O)NC(=O)[C@H](CC2CCNCC2)NC1=O)C1CCCCC1)[C@@H](C)O [compound 428, Ac-(7Me-Trp)-T-(Chg)-C(1)-[3-(4-piperidinyl)-Ala]-N-(2Nal)-Lys(DOTA)-D-C(1)-W-P-NH2] (Ac-[Trp(7-Me)]T[Chg]C[Ala(piperidin-4-yl)]N[2Nal]K(DOTA)DCWP-NH2; linker 4-10 via CH2) |
| < 1 | COc1cccc2c(C[C@H](NC(C)=O)C(=O)N[C@H](C(=O)N[C@H](C(=O)N[C@H]3CSCSC[C@@H](C(=O)N[C@@H](Cc4c[nH]c5ccccc45)C(=O)N4CCCC4C(N)=O)NC(=O)[C@H](CC(=O)O)NC(=O)[C@H](CCCCNC(=O)CN4CCN(CC(=O)O)CCN(CC(=O)O)CCN(CC(=O)O)CC4)NC(=O)[C@H](Cc4ccc5ccccc5c4)NC(=O)[C@H](CC(N)=O)NC(=O)[C@H](CC4CCNCC4)NC3=O)C3CCCCC3)[C@@H](C)O)c[nH]c12 (stereo partly drawn) [compound 430, Ac-(7MeO-Trp)-T-(Chg)-C(1)-[3-(4-piperidinyl)-Ala]-N-(2Nal)-Lys(DOTA)-D-C(1)-W-P-CONH2] (Ac-[Trp(7-OMe)]T[Chg]C[Ala(piperidin-4-yl)]N[2Nal]K(DOTA)DCW[ξP]-NH2; linker 4-10 via CH2) |
| < 1 | CCCC[C@@H](C(=O)N[C@H]1CSCSC[C@@H](C(=O)N[C@@H](Cc2c[nH]c3ccccc23)C(=O)N2CCC[C@H]2C(N)=O)NC(=O)[C@H](CC(=O)O)NC(=O)[C@H](CCCCNC(=O)CN2CCN(CC(=O)O)CCN(CC(=O)O)CCN(CC(=O)O)CC2)NC(=O)[C@H](Cc2ccc3ccccc3c2)NC(=O)[C@H](CC(N)=O)NC(=O)[C@H](CC2CCNCC2)NC1=O)N(C)C(=O)[C@@H](NC(=O)[C@H](Cc1c[nH]c2c(C)cccc12)NC(C)=O)[C@@H](C)O [compound 431, Ac-(7Me-Trp)-T-(NMe-Nle)-C(1)-[3-(4-piperidinyl)-Ala]-N-(2Nal)-Lys(DOTA)-D-C(1)-W-P-CONH2] (Ac-[Trp(7-Me)]T[NMeNle]C[Ala(piperidin-4-yl)]N[2Nal]K(DOTA)DCWP-NH2; linker 4-10 via CH2) |
